From US8962598B2, “1,2-dihydro-4-hydroxy-2-oxo-quinoline-3-carboxanilides as AHR activators” (Immunahr AB, priority 2010, dated 2015)
In brackets after ≈: the same amount, converted by molar mass.

Assays:
[1] = test system: EAE in female Dark Agouti (DA) rats; assay: Experimental autoimmune encephalomyelitis (EAE) MS model in rats; format: in vivo, rat; conditions: FIG. 1
Method: EAE was induced day 0 in female Dark Agouti (DA) rats with subcutaneous injection of spinal cord homogenate (SCH, approximately 2 mg, from naive rats) emulsified in incomplete Freunds adjuvant (IFA, total volume 100 ul per rat) at the base of the tail. Disease was evaluated daily from day 5 until the end of the experiment (day 22) according to following criteria: 0=healthy, 1=tail weakness, 2=tail paralysis, 3=tail paralysis and mild waddle, 4=tail paralysis and severe waddle, 5=tail paralysis and paralysis of one limb, 6=tail paralysis and paralysis of both hind limbs, 7=tetraparesis or paralysis of three limbs, and 8=premorbid or dead. Statistical analysis was performed using Prism 5 for Mac OS X (GraphPad Software, San Diego, Calif., USA).
Treatment was initiated day 0 after EAE induction with following treatment injections administered day 3, 6, and 9. The dose was administered as a 500 uL corn oil solution subcutaneously at the lower back. Treatment groups were mixed in all cages to avoid cage effects.
Control (vehicle, corn oil, Sigma Aldrich), 11 animals
Cyclosporin A (positive control, Sigma Aldrich), 10 mg/kg, first dissolved in 70% EtOH to 50 mg/mL, 11 animals
Compound 9 (N-acetyl-N-phenyl-4-acetoxy-5-chloro-1,2-dihydro-1-methyl-2-oxo-quinoline-3-carboxamide, Example 74), 1 mg/kg, 10 animals

[2] = Solubility measurements in 0.2 M phosphate buffer pH 7.4; format: physicochemical; conditions: 0.2 M phosphate buffer pH 7.4, ambient temperature, results from two dilutions; for Solubility: 24 h; for solubility at 24 h: phosphate buffer, pH 7.4, aqueous buffer, thermodynamic from solid
Method: Solubilities of a di- and a mono-acylated compound were measured in 0.2 M phosphate buffer pH 7.4 and compared with the solubility of the corresponding non-acylated compound.
Saturated compound solutions were prepared by mixing the compounds and the buffer solution at ambient temperature for 24 h followed by separation of the aqueous solution by centrifugation. Standard solutions of compounds (1.00 mg/mL) were prepared in DMSO.
The compound concentrations were measured by HPLC-MS/UV (Waters Alliance 2790 Separations Module/996 PDA detector/Micromass Quattro Micro) after appropriate dilutions of the aqueous saturated solutions ( 1/10 and 1/100) and the standard solutions ( 1/100, 1/200, and 1/1000), respectively, with mobile phase solvent.

human AhR = molecular target: T1, human AhR (Homo sapiens, UniProt P35869); assay: Activation of human AhR, GeneBLAzer CYP1A1-bla LS-180 beta-lactamase reporter-gene assay; format: cell-based; conditions: assay reference compound (control activator)
T1 construct: host or cells: GeneBLAzer CYP1A1-bla LS-180 cell line
T1 sequence (P35869 11-848): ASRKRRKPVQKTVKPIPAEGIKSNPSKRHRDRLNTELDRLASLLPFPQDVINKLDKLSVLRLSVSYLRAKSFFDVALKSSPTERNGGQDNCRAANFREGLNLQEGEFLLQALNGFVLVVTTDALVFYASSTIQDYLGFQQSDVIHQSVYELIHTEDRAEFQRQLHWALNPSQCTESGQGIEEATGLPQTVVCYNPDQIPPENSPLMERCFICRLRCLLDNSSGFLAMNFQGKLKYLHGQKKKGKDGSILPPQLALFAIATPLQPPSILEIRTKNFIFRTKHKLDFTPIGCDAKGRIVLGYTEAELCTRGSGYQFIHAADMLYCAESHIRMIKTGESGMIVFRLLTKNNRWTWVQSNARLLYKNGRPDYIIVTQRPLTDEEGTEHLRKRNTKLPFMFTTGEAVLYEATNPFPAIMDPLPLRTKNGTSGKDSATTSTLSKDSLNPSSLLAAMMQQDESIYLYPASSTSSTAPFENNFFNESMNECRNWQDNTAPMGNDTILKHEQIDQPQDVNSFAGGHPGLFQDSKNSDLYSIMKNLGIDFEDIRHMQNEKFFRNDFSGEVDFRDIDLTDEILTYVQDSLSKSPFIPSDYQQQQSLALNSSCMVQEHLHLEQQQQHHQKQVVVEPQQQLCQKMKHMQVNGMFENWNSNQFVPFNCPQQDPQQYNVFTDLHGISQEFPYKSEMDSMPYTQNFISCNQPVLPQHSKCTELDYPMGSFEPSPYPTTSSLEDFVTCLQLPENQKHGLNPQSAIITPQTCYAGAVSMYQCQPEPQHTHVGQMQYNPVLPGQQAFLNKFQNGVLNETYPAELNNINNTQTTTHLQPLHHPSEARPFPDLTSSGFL
Method: Activation of the aryl hydrocarbon receptor can be measured in cell-based reporter-gene assays, which consist of cell lines containing the aryl hydrocarbon recptor and transfected with a reporter gene regulated by activated Ahr via an XRE (xenobiotic response element). AhR activation will thus result in an enhanced expression of the reporter protein (e.g. luciferase) which functional activity can be measured.
Activation of human AhR was measured in the GeneBLAzer® CYP1A1-bla LS-180 cell line (Invitrogen Corporation, Madison, www.invitrogen.com/drugdiscovery) using a beta-lactamase reporter gene (bla) combined with a FRET-enabled substrate sensitive to bla expression.
CYP1A1-bla LS-180 cells are harvested and suspended in Assay Media (OPTI-MEM, 0.5% dialyzed FBS, 0.1 mM NEAA, 1 mM Sodium Pyruvate, 100 U/mL/100 μg/mL Pen/Strep) to a concentration of 625,000 cells/mL. 32 μL of cell suspension (20,000 cells) is added to each well of a 384-well Poly-D-Lysine assay plate. Cells in assay media are incubated for 16-24 hours in the plate at 37° C./5% CO2 in a humidified incubator. 4 μL of a 10× serial dilution of beta-naphthoflavone (control activator starting concentration, 100,000 nM) or compounds are added to appropriate wells. 4 μL of Assay Media is added to all wells to bring the final assay volume to 40 μL. […] The plate is read on a fluorescence plate reader. […]

SMILES	Solubility [2] [µg/mL]	solubility at 24 h [2] [µg/mL]	also measured
CC(=O)Oc1c(C(=O)N(C(C)=O)c2ccccc2)c(=O)n(C)c2cccc(Cl)c12 [Compound 9, N-acetyl-N-phenyl-4-acetoxy-5-chloro-1,2-dihydro-1-methyl-2-oxo-quinoline-3-carboxamide]			severity of the first disease period after discontinuation of treatment ([1]; 1 mg/kg s.c. day 0, 3, 6 and 9, versus vehicle control): lower than for vehicle control treated animals; EAE development (clinical score) ([1]; 1 mg/kg s.c. in corn oil day 0, 3, 6 and 9, DA rats): efficiently prevented EAE development
CC(=O)Oc1c(C(=O)N(C(C)=O)c2ccccc2)c(=O)n(C)c2ccccc12 [Compound 1, N-acetyl-N-phenyl-4-acetoxy-1,2-dihydro-1-methyl-2-oxo-quinoline-3-carboxamide]	38 (≈ 100 µM)	21 (≈ 55.5 µM)	
Cn1c(=O)c(C(=O)Nc2ccccc2)c(O)c2ccccc21 [Compound 3, N-phenyl-1,2-dihydro-4-hydroxy-1-methyl-2-oxo-quinoline-3-carboxamide, reference compound]		< 1	
O=c1cc(-c2ccccc2)oc2ccc3ccccc3c12 [beta-naphthoflavone]			EC50 (human AhR): 2090 nM
CC(=O)Oc1c(C(=O)Nc2ccccc2)c(=O)n(C)c2ccccc12 [Compound 2, N-phenyl-4-acetoxy-1,2-dihydro-1-methyl-2-oxo-quinoline-3-carboxamide]	221 (≈ 657 µM)	186 (≈ 553 µM)	
